Tests used:
Assay in all cases: Test C preemergence
Format in all cases: in vivo
[1] = tested on: giant foxtail (Setaria faberii); settings: Setaria faberi, pre-emergence, 336 h, scale 0 to 100, read-out: Plant response rating, Foxtail, Giant
Method in brief: (§1)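 Visual ratings (0 none to 100 complete control) were made 13 to 15 days after treatment, relative to controls. Test chemicals, formulated in a non-phytotoxic solvent mixture with surfactant, were applied in the greenhouse preemergence to seeded loam-sand soil or postemergence to plants 2 to 18 cm tall.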

[2] = tested on: velvetleaf (Abutilon theophrasti); settings: Abutilon theophrasti, pre-emergence, scale 0 to 100, read-out: Plant response rating, Velvetleaf
Method in brief: as §1

[3] = tested on: winter wheat (Triticum aestivum); settings: Triticum aestivum, pre-emergence, 336 h, scale 0 to 100, read-out: Plant response rating, Wheat
Method in brief: as §1

[4] = tested on: oilseed rape (Brassica napus); settings: Brassica napus, pre-emergence, scale 0 to 100, read-out: Plant response rating, Oilseed Rape
Method in brief: as §1

[5] = tested on: soybean (Glycine max); settings: Glycine max, pre-emergence, scale 0 to 100, read-out: Plant response rating, Soybean
Method in brief: as §1

[6] = tested on: corn (Zea mays); settings: Zea mays, pre-emergence, 336 h, scale 0 to 100
Method in brief: as §1

[7] = tested on: large (Lg) crabgrass (Digitaria sanguinalis); settings: Digitaria sanguinalis, pre-emergence, 336 h, scale 0 to 100, read-out: Plant response rating, Crabgrass, Large
Method in brief: as §1

[8] = tested on: ragweed (common ragweed, Ambrosia elatior); settings: Ambrosia artemisiifolia, pre-emergence, 336 h, scale 0 to 100, read-out: Plant response rating, Ragweed
Method in brief: as §1

[9] = tested on: morningglory (Ipomoea coccinea); settings: Ipomoea, pre-emergence, 336 h, scale 0 to 100, read-out: Plant response rating, Morningglory
Method in brief: as §1

[10] = tested on: pigweed (Amaranthus retroflexus); settings: Amaranthus retroflexus, pre-emergence, 336 h, scale 0 to 100, read-out: Plant response rating, Pigweed
Method in brief: as §1

[11] = tested on: blackgrass (Alopecurus myosuroides); settings: Alopecurus myosuroides, pre-emergence, 336 h, scale 0 to 100, read-out: Plant response rating, Blackgrass
Method in brief: as §1

[12] = tested on: barnyardgrass (Echinochloa crus-galli); settings: Echinochloa crus-galli, pre-emergence, read-out: Plant response rating, Barnyardgrass
Method in brief: as §1

[13] = tested on: waterhemp (common waterhemp, Amaranthus rudis); settings: Amaranthus tuberculatus, pre-emergence, scale 0 to 100, read-out: Plant response rating, Waterhemp
Method in brief: as §1

[14] = tested on: Italian ryegrass (Lolium multiflorum); settings: Lolium multiflorum, pre-emergence, 336 h, scale 0 to 100, read-out: Plant response rating, Ryegrass, Italian
Method in brief: as §1

## N#Cc1cccc(Oc2ncc(Cl)cn2)c1Oc1ccc(Br)cn1 [Compound 15]
[1]; 31 g ai/ha, preemergence
  pest or weed control at 31 g/ha: 80%
[1]; 62 g ai/ha, preemergence
  pest or weed control at 62 g/ha: 100%
[1]; 125 g ai/ha, preemergence
  pest or weed control at 125 g/ha: 100%
[1]; Preemergence, 16 g ai/ha
  pest or weed control at 16 g/ha: 70%
[2]; 31 g ai/ha, preemergence
  pest or weed control at 31 g/ha: 75%
[2]; 62 g ai/ha, preemergence
  pest or weed control at 62 g/ha: 90%
[2]; 125 g ai/ha, preemergence
  pest or weed control at 125 g/ha: 100%
[2]; Preemergence, 16 g ai/ha
  pest or weed control at 16 g/ha: 60%
[3]; 31 g ai/ha, preemergence
  plant injury at 31 g/ha: 0%
[3]; 62 g ai/ha, preemergence
  plant injury at 62 g/ha: 5%
[3]; 125 g ai/ha, preemergence
  plant injury at 125 g/ha: 40%
[3]; Preemergence, 16 g ai/ha
  plant injury at 16 g/ha: 0%
[4]; 31 g ai/ha, preemergence
  plant injury at 31 g/ha: 98%
[4]; 62 g ai/ha, preemergence
  plant injury at 62 g/ha: 100%
[4]; 125 g ai/ha, preemergence
  plant injury at 125 g/ha: 100%
[4]; Preemergence, 16 g ai/ha
  plant injury at 16 g/ha: 25%
[5]; 31 g ai/ha, preemergence
  plant injury at 31 g/ha: 30%
[5]; 62 g ai/ha, preemergence
  plant injury at 62 g/ha: 40%
[5]; 125 g ai/ha, preemergence
  plant injury at 125 g/ha: 60%
[5]; Preemergence, 16 g ai/ha
  plant injury at 16 g/ha: 20%
[6]; 31 g ai/ha, preemergence
  Corn plant response rating (crop injury, 0 = no effect, 100 = complete kill) at 31 g/ha: 0%
[6]; 62 g ai/ha, preemergence
  Corn plant response rating (crop injury, 0 = no effect, 100 = complete kill) at 62 g/ha: 5%
[6]; 125 g ai/ha, preemergence
  Corn plant response rating (crop injury, 0 = no effect, 100 = complete kill) at 125 g/ha: 40%
[6]; Preemergence, 16 g ai/ha
  Corn plant response rating (crop injury, 0 = no effect, 100 = complete kill) at 16 g/ha: 0%
[7]; 31 g ai/ha, preemergence
  pest or weed control at 31 g/ha: 100%
[7]; 62 g ai/ha, preemergence
  pest or weed control at 62 g/ha: 100%
[7]; 125 g ai/ha, preemergence
  pest or weed control at 125 g/ha: 100%
[7]; Preemergence, 16 g ai/ha
  pest or weed control at 16 g/ha: 75%
[8]; 31 g ai/ha, preemergence
  pest or weed control at 31 g/ha: 30%
[8]; 62 g ai/ha, preemergence
  pest or weed control at 62 g/ha: 50%
[8]; 125 g ai/ha, preemergence
  pest or weed control at 125 g/ha: 40%
[8]; Preemergence, 16 g ai/ha
  pest or weed control at 16 g/ha: 0%
[9]; 31 g ai/ha, preemergence
  pest or weed control at 31 g/ha: 5%
[9]; 62 g ai/ha, preemergence
  pest or weed control at 62 g/ha: 40%
[9]; 125 g ai/ha, preemergence
  pest or weed control at 125 g/ha: 70%
[9]; Preemergence, 16 g ai/ha
  pest or weed control at 16 g/ha: 5%
[10]; 31 g ai/ha, preemergence
  pest or weed control at 31 g/ha: 100%
[10]; 62 g ai/ha, preemergence
  pest or weed control at 62 g/ha: 100%
[10]; 125 g ai/ha, preemergence
  pest or weed control at 125 g/ha: 100%
[10]; Preemergence, 16 g ai/ha
  pest or weed control at 16 g/ha: 80%
[11]; 31 g ai/ha, preemergence
  pest or weed control at 31 g/ha: 0%
[11]; 62 g ai/ha, preemergence
  pest or weed control at 62 g/ha: 10%
[11]; 125 g ai/ha, preemergence
  pest or weed control at 125 g/ha: 80%
[11]; Preemergence, 16 g ai/ha
  pest or weed control at 16 g/ha: 0%
[12]; 31 g ai/ha, preemergence, scale 0 to 100
  pest or weed control at 31 g/ha: 25%
[12]; 62 g ai/ha, preemergence, scale 0 to 100
  pest or weed control at 62 g/ha: 70%
[12]; 125 g ai/ha, preemergence, scale 0 to 100
  pest or weed control at 125 g/ha: 98%
[12]; Preemergence, 16 g ai/ha, scale 0 to 100 (0 no effect, 100 complete control)
  pest or weed control at 16 g/ha: 10%
[13]; 31 g ai/ha, preemergence
  pest or weed control at 31 g/ha: 100%
[13]; 62 g ai/ha, preemergence
  pest or weed control at 62 g/ha: 100%
[13]; 125 g ai/ha, preemergence
  pest or weed control at 125 g/ha: 100%
[13]; Preemergence, 16 g ai/ha
  pest or weed control at 16 g/ha: 100%
[14]; 31 g ai/ha, preemergence
  pest or weed control at 31 g/ha: 5%
[14]; 62 g ai/ha, preemergence
  pest or weed control at 62 g/ha: 40%
[14]; 125 g ai/ha, preemergence
  pest or weed control at 125 g/ha: 60%
[14]; Preemergence, 16 g ai/ha
  pest or weed control at 16 g/ha: 0%

— patent publication US20170190671A1, “BIS(ARYL)CATECHOL DERIVATIVES AS HERBICIDES” (E I DU PONT DE NEMOURS AND COMPANY, priority 2014, published 2017)
